The text below walks through data of patent US20230293478A1, “NITROGEN-CONTAINING ANALOGS OF SALINOMYCIN FOR USE IN ACUTE MYELOID LEUKEMIA” (Centre National de la Recherche Scientifique (CNRS), priority 2020, published 2023).

Test [1] relates to primary AML samples derived from patients with venetoclax resistant or refractory disease. Description: Primary patient synergy analysis (PI viability, Bliss). The test is classed as cell-based, human. The note with it: monotherapy, 1 μM, 5 days, five primary samples. The protocol: Samples were collected from patients with AML treated at the Alfred Hospital after obtaining informed consent. Studies were conducted in accordance with the approved protocols through the Human Research Ethics Committee of the Alfred Hospital and the Declaration of Helsinki for all subjects. Primary AML cells were cultured in StemSpan SFEM (Stemcell Technologies) supplemented with 10 ng/mL IL-3, 10 ng/mL IL-6, 50 ng/mL SCF and 50 ng/mL FLT3L (all Peprotech) and 35 nM UM171 and 500 nM stemreginin (StemCell Technologies). For primary patient synergy analyses, 50,000 AML cells were plated in each well of a 96-well plate, and cultured with escalating doses of ironomycin and venetoclax for 5 days in medium conditions as described above. After 5 days, viability was assessed via propidium iodide staining and flow cytometry (BD FACSCanto). Synergy was determined using the Bliss synergy model.

In test [2] the test system is MV4,11 cells transplanted into NSG mice. Description: AML xenograft model, survival. The test is classed as in vivo, mouse. The note with it: 5 days/week for 4 weeks, single agent. On the procedure:
Ironomycin was dissolved in PBS+2.5% DMSO. […] Animals were euthanized at the completion of treatment.

Test [3] deals with WT MV4; 11 cell line. Put plainly: Cell death analysis (PI, Cell titer glow) in WT MV4;11. It is filed as cell-based, human. The settings on record: 24 h. The protocol: (§1) Cells were seeded at a constant density prior to treatment in triplicate and treated with either ironomycin or DMSO over the indicated time period. Drug was refreshed at least every two days. Cells were stained with DAPI and live cell number was calculated using the BD FACSVerse (BD Biosciences). CellTitreGlo (Promega) assays were performed as per manufacturer's instructions in a 96 well plate format. To determine the half-maximal inhibitory concentration (IC50) for ironomycin, 24 h after seeding the cells at a constant density in triplicate, cells were treated with ironomcyin or DMSO for 72 hours. At day 3, after incubating the cells with 600 μM of resazurin for 6 h, fluorescence was measured at λex=530 nm and λem=590 nm, using a Microplate Reader (EnSpire, Perkin Elmer). Relative fluorescence units were converted to per cent of inhibition relative to controls on the same plate, and the data were fitted against a four-parameter logistic model to determine the IC50.
(§2) Cell death, cells were washed once with PBS and assessed using propidium iodide PI from staining (Sigma) according to manufacturer's instructions. Lipid peroxidation was assessed with BODIPYC11 staining (Thermo Fisher D3861). Cell were washed once with PBS and stained for 30 minutes in the dark at room temperature in 1 ml of 7.5 μM PBS solution, washed once and assessed according to manufacturer's instructions. […]

The next test concerns KG1. Put plainly: IC50 determination (resazurin), KG1. It is filed as cell-based. The settings on record: Homo sapiens, KG-1; KG1 cell line, 72 hours. The protocol: as §1
A general note: Resazurin is reduced to fluorescent resorufin, in cell work by metabolically active cells.

A further test concerns KASUMI-1. Put plainly: IC50 determination (resazurin), KASUMI-1. The test is classed as cell-based. The settings on record: Homo sapiens; KASUMI-1 cell line, 72 hours. On the procedure: as §1
The test system of another test is HL-60. Description: IC50 determination (resazurin), HL-60. The test is classed as cell-based. The settings on record: Homo sapiens; HL-60 cell line, 72 hours. The protocol:
as §1

The test system of another test is NOMO-1. Put plainly: IC50 determination (resazurin), NOMO-1. The settings on record: Homo sapiens; NOMO-1 cell line, 72 hours. The test is classed as cell-based. On the procedure: as §1
Another test relates to SKM-1. Put plainly: IC50 determination (resazurin), SKM-1. The test is classed as cell-based. The settings on record: Homo sapiens; SKM-1 cell line, 72 hours. The protocol:
as §1

In the next test the test system is NB4. Put plainly: IC50 determination (resazurin), NB4. The test is classed as cell-based. The note with it: Homo sapiens, NB-4; NB4 cell line, 72 hours. On the procedure:
as §1

A further test concerns MV4-11. Put plainly: IC50 determination (resazurin), MV4-11. The test is classed as cell-based. The settings on record: Homo sapiens; MV4-11 cell line, 72 hours. On the procedure: as §1
In the next test the test system is MOLM-13. Description: IC50 determination (resazurin), MOLM-13. The test is classed as cell-based. The note with it: Homo sapiens; MOLM-13 cell line, 72 hours. On the procedure: as §1
In another test the test system is OCI-AML3. Put plainly: IC50 determination (resazurin), OCI-AML3. It is filed as cell-based. The note with it: Homo sapiens, OCI-AML-3; OCI-AML3 cell line, 72 hours. The protocol: as §1
The subject of a further test is HEL 92.1.7. Description: IC50 determination (resazurin), HEL 92.1.7. It is filed as cell-based. The settings on record: Homo sapiens; HEL 92.1.7 cell line, 72 hours. On the procedure:
as §1

For another test, the system named is K 562. Put plainly: IC50 determination (resazurin), K 562. It is filed as cell-based. The note with it: Homo sapiens, K562; K 562 cell line, 72 hours. The protocol:
as §1

The subject of a further test is human AML cell lines. Put plainly: IC50 determination across various human AML cell lines. The note with it: range over various human AML cell lines, 72 hours; read-out: Half maximal inhibitory concentration (IC50). It is filed as cell-based. The protocol:
as §1

For another test, the system named is AML cell lines. Description: Cell proliferation and PI cell death in AML cell lines. It is filed as cell-based, human. The note with it: all AML cell lines tested. The protocol:
as §1, §2

Test [4] concerns cleaved PARP1 and cleaved caspase 3 in MOLM-13 cell line. Description: Immunoblot of cleaved PARP1 and cleaved caspase 3. It is filed as cell-based, human. The note with it: 500 nM, 24 h. On the procedure:
Cells were lysed in 20 mM HEPES pIH7.9, 0.5 mM EDTA, 2% SDS plus 1× protease inhibitor cocktail (Roche) by brief sonication. Lysates were heated to 95° C. in SDS sample buffer with 50 mM DTT for 5 min, separated by SDS-PAGE and transferred to PVDF membrane (Millipore). Membranes were blocked in 5% milk or BSA in TBS +0.1% Tween-20, probed with the indicated antibodies, and reactive bands visualised using ECL Prime (GE).

The subject of test [5] is lysosomal iron in MOLM13 cells. Description: Lysosomal iron, RhoNoxM probe flow cytometry. It is filed as cell-based, human. On the procedure: Ironomycin (AM5) and AM23 were synthesized as previously described (Mai et al., 2017), venetoclax (ABT-199), biranapant and IDN-6556 are commercially available. Metformin and phenformin, were purchased from sigma (PHR1084 and PHR1573) and reconstituted freshly in culture medium. Turn-off Fe2+ probe (Petrat et al., 2002) was synthesized as previously reported (Muller et al., 2018), dose was 1 μM for 1 h for flow cytometry experiments. RhonoxM (Hirayarna et al., 2013) was synthesized as previously reported (Mai et al., 2017), dose was 1 μM, 1 h for flow cytometry experiments. Liproxstatin-1 (sigma SML1414, DMSO), ferrostatin (sigma SML0583, DMSO), RSL3 (sigma SML2234, DMSO), 6 aminonicotidamide (sigma A68203, DMSO), Z-VADfmk (R&D system FMK001, DMSO).
Background: A flow cytometer gives signals particle by particle.

The test system of test [6] is mitochondrial iron in MOLM13 cells. Put plainly: ICP-MS iron on isolated mitochondria. The test is classed as cell-based, human. The settings on record: ICP-MS on isolated mitochondria after treatment.
Test [7] concerns mitochondrial ROS in MV4; 11 and OCI-AML3. Put plainly: Mitochondrial ROS, Mitosox Red flow cytometry. It is filed as cell-based, human. The note with it: 500 nM, 24 hours.
The test system of test [8] is lipid ROS in OCIAML3 and MOLM-13 cells. Description: Lipid peroxidation, C11 BODIPY 581/591 staining. The settings on record: 500 nM, 48 hours. It is filed as cell-based, human. The protocol:
(§3) Cell death, cells were washed once with PBS and assessed using propidium iodide PI from staining (Sigma) according to manufacturer's instructions. Lipid peroxidation was assessed with BODIPYC11 staining (Thermo Fisher D3861). Cell were washed once with PBS and stained for 30 minutes in the dark at room temperature in 1 ml of 7.5 μM PBS solution, washed once and assessed according to manufacturer's instructions. Mitochondrial ROS were assessed with mitosox red probe (thermofisher M36008) according to manufacturer's instructions. All flow cytometry analyses were performed on a LSR Fortessa X-20 flow cytometer (BD Biosciences) and all data analysed with FlowJo. Cell sorting was performed on a FACSAria Fusion 5 (BD Biosciences).

Test [9] has as its system mitochondria in MV4; 11 cells. Put plainly: Transmission electron microscopy of mitochondria. It is filed as cell-based, human. The settings on record: 500 nM, 16 h. On the procedure: Cells were fixed in 2% GA in 0.1M sodium cacodylate buffer for 2 hours at room temperature, rinsed with 0.1M na-cacodylaatbuffer (5×10 min), and posffixation was done with 1% Osmium tetroxide and 1.5% Potassium ferricyanide for 2 hours at 4C in the dark. After rinsing in milliQ water, cells were stained with 0.5% Uranylacetate in MQ (±PH 4) for 1 h at 4° C. Cells were scraped and embedded in low melting agarose before serial dehydration in ethanol followed by propylene oxide and embedding into epon-araldyte resin. After polymerisation of the resin at 65 C for 48 hours, ultrathin sections were cut on a Leica UCT ultramicrotome and sections stained with uranyl acetate and lead citrate. Sections were examined on a Jeol JEM-1400Plus transmission electron microscope equipped with a Matataki flash camera at 80 keV.

Test [10] relates to WT MV4; 11 cell line. Put plainly: PI cell death in medium with different glucose concentration. The settings on record: 500 nM, 48 h. It is filed as cell-based, human. On the procedure: as §3
For test [11] the following is noted: Mai et al., 2017; cited from earlier work.

With Venetoclax [reference compound], in test [1], the impaired cell viability is listed as 6-40%. For the same compound, the survival result in [2] (venetoclax 75 mg/kg oral gavage) is reported as “did not result in any survival advantage”. Also, in the test on WT MV4; 11 cell line [3], the cell death entry is “induce cell death”.

In the case of `C#CCN[C@@H]1C=C[C@]2(O[C@H]([C@@H](CC)C(=O)[C@@H](C)[C@@H](O)[C@H](C)[C@@H]3O[C@@H]([C@@H](CC)C(=O)O)CC[C@@H]3C)[C@@H](C)C[C@H]2C)O[C@@]12CC[C@@](C)([C@H]1CC[C@](O)(CC)[C@H](C)O1)O2` [Ironomycin], the IC50 in the test on KG1 is 14 nM; in the test on KASUMI-1, 16 nM; with HL-60, 26 nM; in the test on NOMO-1, 30 nM; with SKM-1, 45 nM; in the test on NB4, 47 nM. The IC50 was 61 nM with MV4-11; 70 nM in the test with MOLM-13; 118 nM with OCI-AML3; 260 nM with HEL 92.1.7; 410 nM in the test on K 562; 14 to 410 nM with human AML cell lines. Moreover, the “cell death (PI staining)” value in the test with AML cell lines is “rapid cell death”. The proliferation result in the test with AML cell lines was “proliferation block in a dose dependent manner”. Also, in test [2] (ironomycin 1 mg/kg IP), the survival result is recorded as “did not result in any survival advantage”. Further, the “cleavage of caspase 3 and PARP1” value in test [4] was “did not cleaved caspase 3 nor PARP1”. In addition, the cell death entry in the test on WT MV4; 11 cell line [3] is “induce cell death”. Also, the lysosomal iron entry in [5] is listed as “increased lysosomal iron”. In addition, the “total iron in mitochondria” value in test [6] was “decrease in total iron into the mitochondria”. The “mitochondrial ROS” value in test [7] is given as “increased mitochondrial ROS”. Moreover, in [8], the lipid peroxidation result is reported as “induced a lipid peroxidation”. For the same compound, the cristae structure entry in test [9] is given as “disturbed the cristae structure”. In addition, the figures for the “efficacy in killing AML cells” value in the test on WT MV4; 11 cell line [10] (increased glucose concentration) and in the test with WT MV4; 11 cell line [10] (low glucose conditions) were “higher efficacy” and “less efficient”, respectively. Besides, the “potency relative to Salinomycin” value in [11] was “ten times more potent”.
